The results in this text go back to US20210188856A1, “CRYSTAL FORM OF HYDROCHLORIDE OF PYRAZOLOHETEROARYL DERIVATIVE AND PREPARATION METHOD” (JIANGSU HENGRUI MEDICINE CO., LTD., priority 2018, published 2021).

Like-named read-outs stand apart in the source and are kept apart here.

The target of data set [1] is T1, human TLR7 (Homo sapiens, UniProt Q9NYK1).
T1 construct: host or cells: HEK-Blue hTLR7 (HEK293-derived) stably transfected cells
T1 sequence (Q9NYK1 27-1049): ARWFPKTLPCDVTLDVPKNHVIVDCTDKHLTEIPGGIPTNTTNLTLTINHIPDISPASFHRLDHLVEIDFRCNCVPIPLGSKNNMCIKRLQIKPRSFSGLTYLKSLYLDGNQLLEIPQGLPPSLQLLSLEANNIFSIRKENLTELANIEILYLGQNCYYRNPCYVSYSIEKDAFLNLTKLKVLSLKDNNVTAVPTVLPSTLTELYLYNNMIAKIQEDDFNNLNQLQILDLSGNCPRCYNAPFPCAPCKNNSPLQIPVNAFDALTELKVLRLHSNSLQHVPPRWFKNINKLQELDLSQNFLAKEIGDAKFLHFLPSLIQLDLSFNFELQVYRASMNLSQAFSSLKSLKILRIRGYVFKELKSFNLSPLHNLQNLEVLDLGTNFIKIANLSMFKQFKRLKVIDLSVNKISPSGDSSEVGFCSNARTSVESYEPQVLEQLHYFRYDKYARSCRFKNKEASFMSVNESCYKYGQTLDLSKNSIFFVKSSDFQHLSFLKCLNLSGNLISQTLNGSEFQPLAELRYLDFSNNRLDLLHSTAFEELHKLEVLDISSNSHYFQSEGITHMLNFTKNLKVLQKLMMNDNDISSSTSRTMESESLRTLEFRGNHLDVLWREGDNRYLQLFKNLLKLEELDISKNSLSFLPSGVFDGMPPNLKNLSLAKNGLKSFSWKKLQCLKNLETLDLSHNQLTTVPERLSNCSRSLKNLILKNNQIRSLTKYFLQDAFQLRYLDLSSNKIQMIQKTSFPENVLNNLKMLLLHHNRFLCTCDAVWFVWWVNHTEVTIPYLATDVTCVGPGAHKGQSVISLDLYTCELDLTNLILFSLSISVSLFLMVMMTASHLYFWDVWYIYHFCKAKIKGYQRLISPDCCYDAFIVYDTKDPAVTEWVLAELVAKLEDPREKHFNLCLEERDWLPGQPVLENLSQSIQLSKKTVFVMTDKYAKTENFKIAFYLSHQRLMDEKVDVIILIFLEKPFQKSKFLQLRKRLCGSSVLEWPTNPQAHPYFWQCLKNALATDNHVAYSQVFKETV
As to the kind of experiment: Agonistic effect on human TLR7 (HEK-Blue hTLR7 cells). The class given is cell-based. As to the method: The agonistic effect of the compound represented by formula (I) on the hTLR7 protein expressed in HEK-Blue™ hTLR7 stably transfected cells was determined by the following experimental method:
A bag of HEK-Blue detection dry powder was dissolved in 50 mL of water free of endotoxin, and the solution was then placed in an incubator at 37° C. for 10 minutes followed by sterile filtration to prepare a HEK-Blue detection medium. The compound was firstly formulated into a 20 mM stock solution, then diluted with pure DMSO to a maximum concentration of 6×10^6 nM, and a total of 10 points were obtained by a 3-fold gradient dilution.
The above formulated compound was firstly diluted 20-fold with the medium, then 20 μL of the diluted compound was added to each well. The supernatant was removed from the HEK-Blue™ hTLR7 cells, to which 2-5 mL of pre-warmed PBS was then added. The cells were placed in an incubator for 1-2 minutes, gently pipetted, and counted by trypan blue staining. The cells were re-suspended in the HEK-Blue detection medium, and the concentration was adjusted to 2.2×10^5 cells/mL. […]
The plate was read with a microplate reader at a wavelength of 620 nm. The corresponding OD values were obtained, and the EC50 value of the compound was calculated by Graphpad Prism.

The target in data set [2] is T2, CYP2D6 (Homo sapiens, UniProt P10635).
T2 construct: CYP2D6 in human liver microsome; tissue Corning Gentest; host or cells: human liver microsomes
T2 sequence (P10635 whole entry): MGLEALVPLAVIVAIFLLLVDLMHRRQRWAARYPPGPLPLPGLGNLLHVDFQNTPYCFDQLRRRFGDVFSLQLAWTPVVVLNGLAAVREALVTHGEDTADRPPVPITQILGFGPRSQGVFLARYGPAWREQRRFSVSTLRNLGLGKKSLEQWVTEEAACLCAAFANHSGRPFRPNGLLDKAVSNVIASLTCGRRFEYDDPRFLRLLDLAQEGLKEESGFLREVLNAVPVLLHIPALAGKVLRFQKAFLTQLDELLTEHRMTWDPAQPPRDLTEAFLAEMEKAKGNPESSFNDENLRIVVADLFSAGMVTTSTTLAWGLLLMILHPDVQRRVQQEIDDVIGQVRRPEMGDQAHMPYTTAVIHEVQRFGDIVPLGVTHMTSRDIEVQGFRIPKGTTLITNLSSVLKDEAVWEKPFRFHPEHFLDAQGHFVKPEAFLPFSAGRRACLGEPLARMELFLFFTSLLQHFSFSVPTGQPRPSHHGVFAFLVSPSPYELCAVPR
As to the kind of experiment: Inhibition of CYP2D6 in human liver microsome. The class given is in vitro ADME. How it is done: The effect of the compound represented by formula (I) on the enzyme activity of CYP2D6 in human liver microsome was determined by the following experimental method:
100 mM PBS buffer was formulated, which was then used to formulate 2.5 mg/mL microsome solution and 5 mM NADPH solution. The 5× concentration of the compound working solution was diluted with PBS gradient (150, 50, 15, 5, 1.5, 0.15, 0.015, 0 μM). The 5× concentration of quinidine working solution was diluted with PBS gradient (150, 50, 15, 5, 1.5, 0.15, 0.015, 0 μM). Dextromethorphan working solution was diluted with PBS to a concentration of 50 μM.
20 μL of the 2.5 mg/mL microsome solution, 20 μL of the 50 μM […] working solution, 20 μL of MgCl2 solution and 20 μL of the compound working solution (150, 50, 15, 5, 1.5, 0.15, 0.015, 0 μM, different reaction systems for each concentration) were taken respectively and mixed well. For the positive control group, the compound was replaced with the same concentration of quinidine. The mixture together with the 5 mM NADPH solution was pre-incubated at 37° C. for 5 minutes. After 5 minutes, 20 μL of NADPH was added to each well, the reaction was started and incubated for 30 minutes. […] 80 μL of the supernatant was taken and analyzed by LC-MS/MS.
The data were calculated by Graphpad Prism to obtain the IC50 value of the compound on the metabolite site of CYP2D6.

The nature of data set [3]: Solubility in PBS 7.4 and FaSSIF solutions. The class given is physicochemical. To be noted: thermodynamic from solid. An excerpt:
The amorphous samples of the compound represented by formula (I) and the crystal form I samples of the dihydrochloride salt of the compound represented by formula (I) obtained in the present disclosure were further evaluated for solubility in PBS 7.4 and FaSSIF solutions.

For the molecule `CCCCOc1nc(N)c2cnn(Cc3ccc(CN4CCCC4)cc3)c2n1` [compound represented by formula (I), 6-Butoxy-1-(4-(pyrrolidin-1-ylmethyl)benzyl)-1H-pyrazolo[3,4-d]pyrimidin-4-amine], the “agonistic effect on human TLR7 (in words)” value in data set [1] (HEK-Blue hTLR7 cells) is given as “significant agonistic effect”. For the same molecule, a half-maximal effect in data set [1] (HEK-Blue hTLR7 stably transfected cells) (EC50) was put at 0.028 µM. In data set [2], the “inhibitory effect against CYP2D6 (in words)” value was “no inhibitory effect”. In data set [2] (dextromethorphan probe), this molecule showed an IC50 of over 30 µM. Moreover, the solubility in data set [3] (FaSSIF solution, fassif, read-out: FasSIF Solubility) came to 1090 µg/mL; in data set [3] (PBS 7.4, pH 7.4, aqueous buffer, read-out: PBS 7.4 Solubility), 30 µg/mL.
